For one assay, the target named is T1, GPR6 (Homo sapiens, UniProt P46095).
T1 construct: expressed in transfected cells; host or cells: CHO cells
Nature of the assay: GPR6 antagonist functional cAMP assay (LANCE Ultra cAMP TR-FRET, CHO cells stably expressing GPR6). The format is cell-based. Summed up: (§1)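 Compounds, at 0.1% final DMSO, acted on the cells for 45 minutes at 37 °C in the presence of the phosphodiesterase inhibitor Ro 20-1724 (150 μM). After lysis and detection, plates were shaken 1 h at room temperature and emission at 665 nm was recorded. Normalized data gave IC50 values.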

Another assay deals with T2, GPR3 (Homo sapiens, UniProt P46089).
T2 construct: expressed in transfected cells; host or cells: CHO cells
Nature of the assay: GPR3 antagonist functional cAMP assay (LANCE Ultra cAMP TR-FRET, CHO cells stably expressing GPR3). The format is cell-based. In outline:
as §1

The mark [1] stands for this setting: CHO cells stably expressing GPR6, cAMP assay (Example 24).
[2] abbreviates: CHO cells stably expressing GPR3, cAMP assay (Example 24).
The mark [3] stands for this setting: CHO cells stably expressing GPR6, cAMP assay.
The mark [4] stands for this setting: CHO cells stably expressing GPR3, cAMP assay.

Among the data in patent US20260042755A1, “GPR6 INVERSE AGONISTS” (MapLight Therapeutics, Inc., priority 2022, published 2026) are IC50 values, retold here.

Where only a bound is given, the exact number is not on record here.

T2 sequence (P46089 whole entry, species assumed): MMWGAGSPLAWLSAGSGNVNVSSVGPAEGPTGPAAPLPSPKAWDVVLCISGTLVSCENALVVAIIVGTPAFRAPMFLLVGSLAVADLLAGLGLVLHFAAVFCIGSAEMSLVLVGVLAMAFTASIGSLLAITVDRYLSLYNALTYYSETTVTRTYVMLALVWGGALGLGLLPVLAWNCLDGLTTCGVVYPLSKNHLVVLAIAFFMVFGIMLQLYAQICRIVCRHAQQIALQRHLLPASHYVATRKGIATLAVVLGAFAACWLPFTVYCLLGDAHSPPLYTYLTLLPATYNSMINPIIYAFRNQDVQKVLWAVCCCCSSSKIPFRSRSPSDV
T1 sequence (P46095 whole entry): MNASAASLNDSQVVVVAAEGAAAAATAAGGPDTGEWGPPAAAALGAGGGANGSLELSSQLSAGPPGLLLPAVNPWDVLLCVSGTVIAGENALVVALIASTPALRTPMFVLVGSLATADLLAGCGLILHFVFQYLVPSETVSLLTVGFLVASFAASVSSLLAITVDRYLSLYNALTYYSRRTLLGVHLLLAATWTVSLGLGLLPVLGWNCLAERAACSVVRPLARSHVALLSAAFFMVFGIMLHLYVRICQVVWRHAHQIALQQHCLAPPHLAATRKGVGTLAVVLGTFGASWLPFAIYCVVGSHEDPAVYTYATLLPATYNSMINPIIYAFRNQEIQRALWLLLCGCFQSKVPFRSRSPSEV

As usually defined, the IC50 is the concentration needed to halve the response being measured. Turning to `CC(C)(O)[C@](C)(O)c1cc2nc(N3CCN(Cc4ccc(F)cc4F)CC3)c(-c3cnn(C(F)F)c3)nc2cn1` (single isomer, unassigned) [Compound 694], the 50% inhibitory concentration (IC50) at GPR6 (procedure of Example 24) lay in the range of 100 to 1000 nM; at GPR3 (procedure of Example 24) it was 1000 to 30000 nM.

In the case of `CC(=O)N1CCc2nc(N3CCC(C(C)c4ccc(F)cc4F)CC3)c(-c3cnn(C)c3)nc2C1` (centres unmarked) [Compound 790, 1-(2-{4-[1-(2,4-difluorophenyl)ethyl]-1-piperidyl}-3-(1-methyl-4-pyrazolyl)-5,6,7,8-tetrahydro-1,4,6-triaza-6-naphthyl)-1-ethanone], the IC50 is 100 to 1000 nM against GPR6 (procedure of Example 24) and 1000 to 30000 nM against GPR3 (procedure of Example 24).

As for `CC(=O)N1CCc2nc(N3CCC(Cc4cc(F)ccc4F)CC3)c(-c3ccc(F)c(N)n3)nc2C1` [Compound 702, 1-[3-(6-amino-5-fluoro-2-pyridyl)-2-{4-[(2,5-difluorophenyl)methyl]-1-piperidyl}-5,6,7,8-tetrahydro-1,4,6-triaza-6-naphthyl]-1-ethanone], the 50% inhibitory concentration (IC50) on GPR6 (procedure of Example 24) was < 100 nM; against GPR3 (procedure of Example 24), 100 to 1000 nM.

Regarding `Cn1cc(-c2nc3cnc(C(O)CO)cc3nc2N2CCC(Oc3ccc(F)cc3F)CC2)cn1` (centres unmarked) [Compound 470, 1-(2-(4-(2,4-difluorophenoxy)piperidin-1-yl)-3-(1-methyl-1H-pyrazol-4-yl)pyrido[3,4-b]pyrazin-7-yl)ethane-1,2-diol], the half-maximal inhibitory concentration (IC50) against GPR6 (setting [1]) and on GPR3 (setting [2]) was 1000 to 30000 nM each time.

`CC(=O)N1CCc2nc(N3CCN(C(=O)c4ccc(F)cc4C#N)CC3)c(-c3cnn(C)c3)nc2C1` [Compound 286, 2-{4-[6-acetyl-3-(1-methyl-1H-pyrazol-4-yl)-5H,6H,7H,8H-pyrido[3,4-b]pyrazin-2-yl]piperazine-1-carbonyl}-5-fluorobenzonitrile]: the values for the concentration for half-maximal inhibition (IC50) against GPR6 (procedure of Example 24) and at GPR3 (procedure of Example 24) were 1000 to 30000 nM and ≥ 30000 nM, respectively.

For the compound `CC(C)(O)C(C)(O)c1cc2nc(-c3cnn(C(F)F)c3)c(N3CCN(Cc4ccccc4F)CC3)nc2cn1` (centres unmarked) [Compound 684, 2-{2-[1-(difluoromethyl)-4-pyrazolyl]-3-{4-[(o-fluorophenyl)methyl]-1-piperazinyl}-1,4,6-triaza-7-naphthyl}-3-methyl-2,3-butanediol], the IC50 is 100 to 1000 nM against GPR6 (procedure of Example 24) and 1000 to 30000 nM on GPR3 (procedure of Example 24).

For “1-[3-(1-methyl-4-pyrazolyl)-2-{4- [(o-nitrophenyl)methyl]-1- piperazinyl}-5,6,7,8-tetrahydro- 1,4,6-triaza-6-naphthyl]-1- ethanone [Compound 527]”, the IC50 against GPR6 (setting [3]) lay in the range of 100 to 1000 nM; on GPR3 (setting [4]), 1000 to 30000 nM.

Take `CC(=O)N1CCc2nc(N3CCN(Cc4ccc(Cl)cc4F)CC3)c(-c3cnn(C)c3)nc2C1` [Compound 348, 1-(2-{4-[(4-chloro-2-fluorophenyl)methyl]piperazin-1-yl}-3-(1-methyl-1H-pyrazol-4-yl)-5H,6H,7H,8H-pyrido[3,4-b]pyrazin-6-yl)ethan-1-one]: the half-maximal inhibitory concentration (IC50) at GPR6 (procedure of Example 24) fell in the range of 100 to 1000 nM; at GPR3 (procedure of Example 24), 1000 to 30000 nM.

Turning to `CC(=O)N1CCc2nc(N3CCC(Oc4ccc(F)cc4)C3)c(-c3cnn(C)c3)nc2C1` (centres unmarked) [Compound 341, 1-{2-[3-(4-fluorophenoxy)pyrrolidin-1-yl]-3-(1-methyl-1H-pyrazol-4-yl)-5H,6H,7H,8H-pyrido[3,4-b]pyrazin-6-yl}ethan-1-one], the IC50 against GPR6 (procedure of Example 24) and against GPR3 (procedure of Example 24) was 1000 to 30000 nM throughout.

For `CCS(=O)(=O)N1CCc2nc(N3CCC(Oc4ccc(F)cc4F)CC3)c(-c3cnn(C4CCCCO4)c3)nc2C1` (centres unmarked) [Compound 177, 4-(2,4-difluorophenoxy)-1-[6-(ethanesulfonyl)-3-[1-(oxan-2-yl)-1H-pyrazol-4-yl]-5H,6H,7H,8H-pyrido[3,4-b]pyrazin-2-yl]piperidine], the figures for the IC50 against GPR6 (setting [1]) and against GPR3 (setting [2]) were 100 to 1000 nM and 1000 to 30000 nM, respectively.

Consider `CC(=O)N1CCc2nc(N3CCC(Oc4cc(C#N)ccc4F)CC3)c(-c3cnn(C)c3)nc2C1` [Compound 424, 3-({1-[6-acetyl-3-(1-methyl-1H-pyrazol-4-yl)-5H,6H,7H,8H-pyrido[3,4-b]pyrazin-2-yl]piperidin-4-yl}oxy)-4-fluorobenzonitrile], for which the IC50 at GPR6 (setting [1]) and on GPR3 (setting [2]) was 1000 to 30000 nM in each case.

On to `Cn1cc(-c2nc3c(nc2N2CCC(Oc4ccc(F)cc4F)CC2)CC2COC(=O)N2C3)cn1` (centres unmarked) [Compound 486, 2-(4-(2,4-difluorophenoxy)piperidin-1-yl)-3-(1-methyl-1H-pyrazol-4-yl)-9a,10-dihydro-5H-oxazolo[3′,4′:1,6]pyrido[3,4-b]pyrazin-7(9H)-one], for which the IC50 at GPR6 (setting [1]) lay in the range of 100 to 1000 nM; against GPR3 (setting [2]) it was 1000 to 30000 nM.

As for `CC(=O)N1CCc2nc(N3CCC(COc4cccc(F)c4)C3)c(-c3cnn(C)c3)nc2C1` (centres unmarked) [Compound 324, 1-(2-{3-[(3-fluorophenoxy)methyl]pyrrolidin-1-yl}-3-(1-methyl-1H-pyrazol-4-yl)-5H,6H,7H,8H-pyrido[3,4-b]pyrazin-6-yl)ethan-1-one], the IC50 against GPR6 (procedure of Example 24) and against GPR3 (procedure of Example 24) was 1000 to 30000 nM in each case.

On to `CC(=O)N1CCc2nc(N3CCCC(Oc4ccc(F)cc4)C3)c(-c3cnn(C)c3)nc2C1` (centres unmarked) [Compound 338, 1-{2-[3-(4-fluorophenoxy)piperidin-1-yl]-3-(1-methyl-1H-pyrazol-4-yl)-5H,6H,7H,8H-pyrido[3,4-b]pyrazin-6-yl}ethan-1-one], for which the figures for the 50% inhibitory concentration (IC50) against GPR6 (procedure of Example 24) and on GPR3 (procedure of Example 24) were ≥ 30000 nM and 1000 to 30000 nM, respectively.

For `CC(=O)N1CCc2nc(N3CC(Oc4ccc(F)cc4F)C3)c(-c3cnn(C)c3)nc2C1` [Compound 398, 1-{2-[3-(2,4-difluorophenoxy)azetidin-1-yl]-3-(1-methyl-1H-pyrazol-4-yl)-5H,6H,7H,8H-pyrido[3,4-b]pyrazin-6-yl}ethan-1-one], the half-inhibitory concentration (IC50) at GPR6 (setting [1]) and on GPR3 (setting [2]) was 1000 to 30000 nM each time.

For the compound `Cn1cc(-c2nc3cnc(N)cc3nc2N2CCC(Oc3cc(Cl)ccc3Cl)CC2)cn1` [Compound 443, 2-[4-(2,5-dichlorophenoxy)piperidin-1-yl]-3-(1-methyl-1H-pyrazol-4-yl)pyrido[3,4-b]pyrazin-7-amine], the 50% inhibitory concentration (IC50) at GPR6 (setting [1]) and at GPR3 (setting [2]) was 1000 to 30000 nM throughout.

As for `Cn1cc(-c2nc3cc([C@@](C)(O)C(C)(C)O)ncc3nc2N2CCC(Oc3ccc(F)cc3F)CC2)cn1` (single isomer, unassigned) [Compound 739], the values for the 50% inhibitory concentration (IC50) on GPR6 (procedure of Example 24) and against GPR3 (procedure of Example 24) were 100 to 1000 nM and 1000 to 30000 nM, respectively.

For `Cn1cc(-c2nc3c(nc2N2CCC(Oc4ccc(F)cc4F)CC2)CCN(S(C)(=O)=O)C3)cn1` [Compound 211, 4-(2,4-difluorophenoxy)-1-[6-methanesulfonyl-3-(1-methyl-1H-pyrazol-4-yl)-5H,6H,7H,8H-pyrido[3,4-b]pyrazin-2-yl]piperidine], the figures for the IC50 on GPR6 (setting [1]) and on GPR3 (setting [2]) were < 100 nM and 1000 to 30000 nM, respectively.

In the case of `CC(=O)N1CCc2nc(N3CCC(Oc4ccc(F)cc4F)CC3)c(-c3cnn(CC4CC4)c3)nc2C1` [Compound 209, 1-{3-[1-(cyclopropylmethyl)-1H-pyrazol-4-yl]-2-[4-(2,4-difluorophenoxy)piperidin-1-yl]-5H,6H,7H,8H-pyrido[3,4-b]pyrazin-6-yl}ethan-1-one], the IC50 against GPR6 (setting [1]) was in the range of 100 to 1000 nM; on GPR3 (setting [2]) it was 1000 to 30000 nM.

For `CC(=O)N1CCc2nc(N3CCC(Oc4ccc(F)cc4F)CC3)c(C3CCNCC3)nc2C1` [Compound 265, 1-{2-[4-(2,4-difluorophenoxy)piperidin-1-yl]-3-(piperidin-4-yl)-5H,6H,7H,8H-pyrido[3,4-b]pyrazin-6-yl}ethan-1-one], the IC50 at GPR6 (setting [1]) and on GPR3 (setting [2]) was 1000 to 30000 nM throughout.

With `CC(=O)N1CCc2nc(N3CCN(Cc4cc(Cl)ccc4F)CC3)c(-c3cnn(C)c3)nc2C1` [Compound 349, 1-(2-{4-[(5-chloro-2-fluorophenyl)methyl]piperazin-1-yl}-3-(1-methyl-1H-pyrazol-4-yl)-5H,6H,7H,8H-pyrido[3,4-b]pyrazin-6-yl)ethan-1-one], the IC50 against GPR6 (procedure of Example 24) is < 100 nM; against GPR3 (procedure of Example 24), 1000 to 30000 nM.

Regarding `CC(=O)N1CCc2nc(N3CCC(Oc4cc(Cl)ccc4Cl)CC3)c(-c3cnn(C)c3)nc2C1` [Compound 430, 1-{2-[4-(2,5-dichlorophenoxy)piperidin-1-yl]-3-(1-methyl-1H-pyrazol-4-yl)-5H,6H,7H,8H-pyrido[3,4-b]pyrazin-6-yl}ethan-1-one], the half-inhibitory concentration (IC50) at GPR6 (setting [1]) was < 100 nM; against GPR3 (setting [2]), 100 to 1000 nM.

As for `Cn1cc(-c2nc3cnc([C@H](O)C(C)(C)F)cc3nc2N2CCC(Oc3ccc(F)cc3F)CC2)cn1` (single isomer, unassigned) [Compound 743], the half-maximal inhibitory concentration (IC50) on GPR6 (procedure of Example 24) was 100 to 1000 nM; against GPR3 (procedure of Example 24), 1000 to 30000 nM.

Regarding `CC(C)(O)[C@@H](O)c1cc2nc(-c3cnn(CF)c3)c(N3CCN(Cc4cc(F)ccc4F)CC3)nc2cn1` (single isomer, unassigned) [Compound 724], the half-inhibitory concentration (IC50) against GPR6 (procedure of Example 24) is 100 to 1000 nM; on GPR3 (procedure of Example 24), 1000 to 30000 nM.

With `Cc1cc2nc(N3CCC(Oc4ccc(F)cc4F)CC3)c(-c3cnn(C)c3)nc2cn1` [Compound 228, 4-(2,4-difluorophenoxy)-1-[7-methyl-3-(1-methyl-1H-pyrazol-4-yl)pyrido[3,4-b]pyrazin-2-yl]piperidine], the IC50 on GPR6 (setting [1]) was 100 to 1000 nM; on GPR3 (setting [2]), 1000 to 30000 nM.

With `CC(=O)N1CCc2nc(N3CCC(Oc4ccc(F)cc4F)CC3)c(C3CCN(C4COC4)C3)nc2C1` (centres unmarked) [Compound 544, 1-{2-[4-(2,4-difluorophenoxy)-1-piperidyl]-3-[1-(3-oxetanyl)-3-pyrrolidinyl]-5,6,7,8-tetrahydro-1,4,6-triaza-6-naphthyl}-1-ethanone], the half-maximal inhibitory concentration (IC50) against GPR6 (setting [3]) and against GPR3 (setting [4]) was 1000 to 30000 nM in each case.

With `CC(C)(O)[C@@H](O)c1cc2nc(-c3cnn(CF)c3)c(N3CCN(Cc4ccccc4F)CC3)nc2cn1` (single isomer, unassigned) [Compound 713], the half-maximal inhibitory concentration (IC50) against GPR6 (procedure of Example 24) lay in the range of 100 to 1000 nM; against GPR3 (procedure of Example 24), 1000 to 30000 nM.

Take `Cn1cc(-c2nc3cncc(N)c3nc2N2CCC(Oc3ccc(F)cc3F)CC2)cn1` [Compound 459, 2-[4-(2,4-difluorophenoxy)piperidin-1-yl]-3-(1-methyl-1H-pyrazol-4-yl)pyrido[3,4-b]pyrazin-8-amine]: the half-inhibitory concentration (IC50) on GPR6 (setting [1]) fell in the range of 100 to 1000 nM; against GPR3 (setting [2]), 1000 to 30000 nM.
